Holding throughout (assay type): physicochemical
One assay has as its target Factor IX (Homo sapiens, UniProt P00740). Kind of assay: Stabilization assay of Factor IX measured by DSF. Particulars: 0.25 M stabiliser in water, pH 7-8; Tm without compounds 50 °C; FIG. 5. The method, then: (§1) Differential Scanning Fluorimetry (DSF) Assay
(§2) The protein melting temperature (Tm) determination was performed by monitoring protein unfolding with the fluoroprobe SYPRO Orange dye (Molecular Probes), which although completely quenched in aqueous environment, emits fluorescence upon binding to protein hydrophobic patches. Such increase in fluorescence can be measured as a function of temperature. The thermal shift assay was performed on an iCycle iQ5 Real Time PCR Detection System (Bio-Rad), equipped with a charge-coupled device (CCD) camera and a Cy3 filter with excitation and emission wavelengths of 490 and 575 nm, respectively. This equipment can simultaneously detect the fluorescence changes in 96-well plates (low profile plate, Bio-Rad) and thus can be used for parallel thermal stability assays. The 96-well plates are sealed with optical quality sealing tape (Bio-Rad) and centrifuged at 2500 g for 1 minutes immediately before the assay to remove possible air bubbles. The plates are subsequently heated from 20 to 90° C. with stepwise increments of 1° C. with 60 seconds equilibration time, followed by the fluorescence read out. Fluorescence intensities versus temperature are used to calculate the protein melting temperature (Tm) by determining the first derivative (d(Rfu)/dT) and extract the exact transition inflection point. Delta TM values (DTM) for the various conditions were calculated by subtracting the TM value obtained for the reference from the TM value obtained for each condition.
(§3) In a typical assay with a total volume of 20 μL, a protein concentration from 0.1-0.5 mg/mL and a dye concentration of 5 fold were used to guarantee the best signal to noise ratio. The protein stock solutions were prepared in their corresponding buffers before performing the DSF experiments. Stabiliser solutions and dyes were prepared according to each assay specific conditions. The assay was prepared by adding 1-2 μL of protein to 8-9 μL of dye buffer solution, and 10 μL of compound solution. Controls were prepared by replacing the volume of stabilisers by the correspondent buffer.
Stabilization of Factor IX using neutral amide-containing glycosides of the present invention were measured using DSF. The new stabilizers increased the melting temperature of factor IX at a 0.25 M concentration in water and at pH 7-8, as shown in FIG. 5.
(In general: DSF heats the sample and reads unfolding from a dye or from intrinsic fluorescence.)

The next assay addresses lysozyme (Gallus gallus, UniProt P00698). Kind of assay: Stabilization of lysozyme measured by DSF (melting temperature). The note with it: 0.25 M stabiliser, FIG. 1; for stabilization effect on lysozyme (increase of melting temperature Tm): 25 mM sodium acetate buffer pH 3.6 and phosphate buffer pH 12, Tm without compounds 71 °C (pH 3.6) and 55 °C (pH 12); for stabilization effect on lysozyme at pH 12 compared with pH 3.6: DSF. The method, then: as §1, §2, §3
The stabilization of lysozyme in the presence of several stabilisers at 0.25 M concentration and at pH 3.6 and pH 12 was studied using DSF (FIG. 1). […] The stabilization effect was higher for GBA, GaGlyA, b-GGlyA, b-GaLA, b-GaGlyA, and b-GaBA at the higher pH (pH 12). All new compounds are able to stabilise lysozyme under both stress conditions.

Assay [1] deals with adalimumab (Humira®). Kind of assay: Stabilization assay of adalimumab measured by DSF. Particulars: 0.25 M stabiliser; phosphate buffer pH 12; Tm without compounds 41 °C; FIG. 3. The method, then:
as §1
as §2, with “The 96-well plates are sealed with optical quality sealing tape (Bio-Rad) and centrifuged at 2500 g for 1 minutes immediately before the assay to remove possible air bubbles.” left out, “condition. […]” for “condition.”

Assay [2] relates to adalimumab (Humira®). The assay can be described thus: Stabilization assay of adalimumab (Humira) measured by HPSEC under low pH stress. Particulars: GaGlyA 0.5 M; Humira 0.4 mg/ml; room temperature, no thermal stress; compared with no stabiliser; FIG. 2. How it is done: High Performance Size Exclusion Chromatography (HPSEC) Assay
HP-SEC was performed with Waters 515 pump, a Waters 2487 Dual Absorbance Detector (Waters, USA) and a Rheodyme 77251 injector (Waters, USA). A TSK Gel G3000 SWXL column (300 mm×7.8 mm) (Tosoh Biosep, Germany) was used. The volume of injection was adjusted according to each sample concentration in order to inject […] sample of biological molecule, and separation was performed at a flow rate of 1.0 mL/min or adjusted as appropriate. A suitable running buffer was used, e.g., 100 mM sodium sulfate, 100 mM sodium phosphate dibasic pH 6.8 for Humira® samples. UV detection was performed at a wavelength suitable to detect the biological molecule, e.g., 280 nm. No thermal stress was applied and assay was performed at room temperature. Absorbance was measured to determine the concentration of biological molecule and thus determine amount of degredation of the biological molecule.
A pH titration of adalimumab (Humira®) to pH 3.2 was performed either in the absence and presence of stabiliser GaGlyA 0.5 M, and the results were analysed by HPSEC (FIG. 2). […] Absorbance was measured to determine the concentration of biological molecule and thus determine amount of degredation of the biological molecule. […]
On the technique in general: In gel filtration, larger molecules generally elute earlier.

A further assay addresses T1, ubiquitin (Homo sapiens, UniProt P0CG47).
T1 construct: Stabilization Assay of Ubiquitin Measured by DSF
The assay can be described thus: Stabilization assay of ubiquitin measured by DSF. The note with it: 0.25 M compound; phosphate buffer pH 12; Tm without compounds 72 °C; FIG. 4. How it is done:
as §1
as §2, with “The 96-well plates are sealed with optical quality sealing tape (Bio-Rad) and centrifuged at 2500 g for 1 minutes immediately before the assay to remove possible air bubbles.” left out, “condition. […]” for “condition.”

Sequence of Factor IX (P00740 47-461): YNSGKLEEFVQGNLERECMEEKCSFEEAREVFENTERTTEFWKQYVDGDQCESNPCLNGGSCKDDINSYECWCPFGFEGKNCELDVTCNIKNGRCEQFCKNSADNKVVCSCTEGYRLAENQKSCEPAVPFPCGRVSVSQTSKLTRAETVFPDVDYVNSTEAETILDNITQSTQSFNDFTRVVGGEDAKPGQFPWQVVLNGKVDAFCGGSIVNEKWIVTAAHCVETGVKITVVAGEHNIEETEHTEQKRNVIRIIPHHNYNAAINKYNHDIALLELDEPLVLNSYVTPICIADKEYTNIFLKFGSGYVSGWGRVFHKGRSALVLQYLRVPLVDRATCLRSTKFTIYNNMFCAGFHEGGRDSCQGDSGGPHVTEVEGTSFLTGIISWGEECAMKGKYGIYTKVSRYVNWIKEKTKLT
Sequence of lysozyme (P00698 19-147): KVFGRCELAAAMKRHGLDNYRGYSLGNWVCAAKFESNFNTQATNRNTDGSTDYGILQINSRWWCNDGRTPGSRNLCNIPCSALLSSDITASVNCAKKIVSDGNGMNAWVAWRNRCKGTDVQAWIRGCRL

Take `NC(=O)COC1O[C@H](CO)[C@@H](O)[C@H](O)[C@H]1O` (stereo partly shown) [GGlyA]: at Factor IX, the “stabilization of Factor IX (increase of melting temperature)” value is listed as “showed stabilization of factor IX”.
Take `CC(CC(N)=O)O[C@@H]1O[C@H](CO)[C@H](O)[C@H](O)[C@H]1O` (stereo partly drawn) [b-GaBA, 3-O-(β-D-galactopyranosyl)-3-hydroxybutyramide]: at lysozyme, the “stabilization effect on lysozyme (increase of melting temperature Tm)” value is listed as “showed a stabilization effect” and the “stabilization effect on lysozyme at pH 12 compared with pH 3.6” value (shortened to “stabilization effect … compared with pH 3.6”) is reported as “higher”. Besides, in the assay with adalimumab (Humira®) [1], the “increase of the melting temperature of adalimumab” value came out at 22 °C.
For beta-glucosyl-lactamide [b-GLA], the “stabilization effect on lysozyme (increase of melting temperature Tm)” value on lysozyme is reported as “showed a stabilization effect”.
Regarding `C[C@H](OC1O[C@H](CO)[C@H](O)[C@H](O)[C@H]1O)C(N)=O` (stereo partly shown) [GaLA], the “stabilization effect on lysozyme (increase of melting temperature Tm)” value at lysozyme is given as “showed a stabilization effect”. Further, on Factor IX, the “stabilization of Factor IX (increase of melting temperature)” value is reported as “showed stabilization of factor IX”.
For the molecule `C[C@H](O[C@H]1O[C@H](CO)[C@@H](O)[C@H](O)[C@@H]1O)C(N)=O` [MLA, (2S)-2-O-(α-D-mannopyranosyl)-3-propanamide], the “stabilization effect on lysozyme (increase of melting temperature Tm)” value at lysozyme is “showed a stabilization effect”.
As for beta-galactosyl-lactamide [b-GaLA], at lysozyme, the “stabilization effect on lysozyme (increase of melting temperature Tm)” value is given as “showed a stabilization effect” and the “stabilization effect … compared with pH 3.6” value is on record as “higher”.
On to `NC(=O)CO[C@H]1O[C@H](CO)[C@@H](O)[C@H](O)[C@@H]1O` [MglyA, 2-O-(α-D-mannopyranosyl)acetamide], for which the “stabilization effect on lysozyme (increase of melting temperature Tm)” value on lysozyme was “showed a stabilization effect”. Also, the “stabilization of Factor IX (increase of melting temperature)” value on Factor IX is on record as “showed stabilization of factor IX”.
Take `NC(=O)COC1O[C@H](CO)[C@H](O)[C@H](O)[C@H]1O` (stereo partly shown) [GaGlyA]: on lysozyme, the “stabilization effect on lysozyme (increase of melting temperature Tm)” value is on record as “showed a stabilization effect” and the “stabilization effect … compared with pH 3.6” value was “higher”. Further, the “degradation of adalimumab after 12 hours at pH 3.2 (HPSEC)” value in the assay with adalimumab (Humira®) [2] was “much reduced”.
Turning to `CC(CC(N)=O)OC1O[C@H](CO)[C@@H](O)[C@H](O)[C@H]1O` (stereo partly drawn) [GBA, 3-O-(α/β-D-glucopyranosyl)-3-hydroxybutyramide], the “increase of the melting temperature of ubiquitin” value at ubiquitin stood at 9 °C. At lysozyme, the “stabilization effect on lysozyme (increase of melting temperature Tm)” value is recorded as “showed a stabilization effect” and the “stabilization effect … compared with pH 3.6” value was “higher”. The “stabilization of Factor IX (increase of melting temperature)” value at Factor IX is listed as “showed stabilization of factor IX”.

For the origin of these results see patent publication US12098162B2, “Neutral glycosylated amides and dianionic glucuronidated acids as stabilizers for biological molecules” (Extremochem, LDA, priority 2017, dated 2024).
